Measurements published in US5773019A, “Implantable controlled release device to deliver drugs directly to an internal portion of the body” (The University of Kentucky Research Foundation, priority 1995, dated 1998).
Converted amounts (≈) assume the structure as drawn.

Experiments:
eye [1] = experiment: Ocular safety of ciprofloxacin device (ERG, slit lamp, indirect biomicroscopy)
most pathogens = conditions: cited from earlier work
[2] = In vitro release of ciprofloxacin from device (HPLC); type: physicochemical
Experimental: Ciprofloxacin is normally supplied as the HCl salt. […] A 5% solution of PLA was used as a "glue" to fix a 7-0 nylon suture to the pellet.
Release from these devices was determined at 37° C. by immersion in 1 ml of phosphate buffer (pH 7.4) or a solution composed of 20% serum: 80% phosphate buffer. […] Samples were again assayed by HPLC.

eye [3] = experiment: ERG toxicity of retinoic acid implant sutured onto sclera; type: in vivo; conditions: 12 mg disc in silicone on sclera, 3 rabbits, ERG weekly for 5 weeks
Experimental: A device according to the present invention was prepared. This device was composed of a 3 mm, 12 mg disc of retinoic acid encased in silicone. It resembles FIG. 3 in appearance. The implant was prepared by preparing a thin film of silicone. A 2.5 mm hole was then cut through the film and the retinoic acid pellet fixed directly over the hole using silicone. A loop of Prolene suture was placed over the pellet and fixed onto the surface of the film so that a "gap" of over 1 mm was present between the pellet and the suture all the way around. The entire assembly was then coated again in silicone. These pellets were sutured onto the surface of the sclera in 3 rabbits and the ERGs taken every week for 5 weeks.

Row | SMILES | slit lamp examination (eye [1]; 7 and 14 days) | indirect biomicroscopy (eye [1]; implanted eyes) | ERG waveforms or amplitudes (eye [1]; pre- vs post-implantation) | MIC90 (most pathogens) [µg/mL] | linearity of release ([2]; 37° C., 6 days, phosphate buffer pH 7.4 or 20% serum) | effect of serum concentration on release ([2]; phosphate buffer pH 7.4 vs 20% serum) | linearity of release ([2]; separate study, twenty day period) | persistence of drug particles in subconjunctival space (5 mg subconjunctival suspension injection) [days] | linearity of release in the vitreous (explanted devices) | mean release rate in the vitreous (explanted devices) [µg/h] | mean device duration (from mean release rate) [weeks] | toxicity (ERG) (eye [3])
1 | O=C(O)c1cn(C2CC2)c2cc(N3CCNCC3)c(F)cc2c1=O [ciprofloxacin] | mild vitreous cell at 7 days that had resolved by 14 days | devices to be stable with no migration and no retinal detachment | no significant difference in the pre- and post-implantation waveforms or amplitudes | 1 (≈ 3.02 µM) | linear over the duration of the study | relatively independent of serum concentration | linear over a twenty day period | 7 | linear while in the vitreous | 2.5 | 4 | –
2 | CC1=C(/C=C/C(C)=C/C=C/C(C)=C/C(=O)O)C(C)(C)CCC1 [retinoic acid] | – | – | – | – | – | – | – | – | – | – | – | no evidence of toxicity
